Assay results as given in US20040038855A1 (priority 1999, published 2004).
Where a name gives a salt, the structure may show the parent alone.

What was measured:
human MCH1 receptor = human MCH1 receptor (Homo sapiens, UniProt Q99705); test: Intracellular calcium response to MCH in COS-7 cells transfected with MCH1 (fluo-3, FLIPR): antagonist potency; assay type: cell-based; parameters: expressed in transfected cells; host or cells: COS-7; conditions: read-out: Kb (nM) hMCH1
Source text: MCH1 antagonist compounds were identified by their ability to inhibit the MCH-elicited response. […]. From the IC50 values, the antagonist potency (Kb)was derived using the Cheng-Prussof correction (Lazareno and Birdsall, 1993). […]

human GALR3 receptor = target: T1, human GALR3 receptor (Homo sapiens, UniProt O60755); test: Binding affinity at the human GALR3 receptor; conditions: Table 3a; read-out: hGALR3 Ki
T1 construct: expressed in transfected cells
T1 sequence (O60755 1-368): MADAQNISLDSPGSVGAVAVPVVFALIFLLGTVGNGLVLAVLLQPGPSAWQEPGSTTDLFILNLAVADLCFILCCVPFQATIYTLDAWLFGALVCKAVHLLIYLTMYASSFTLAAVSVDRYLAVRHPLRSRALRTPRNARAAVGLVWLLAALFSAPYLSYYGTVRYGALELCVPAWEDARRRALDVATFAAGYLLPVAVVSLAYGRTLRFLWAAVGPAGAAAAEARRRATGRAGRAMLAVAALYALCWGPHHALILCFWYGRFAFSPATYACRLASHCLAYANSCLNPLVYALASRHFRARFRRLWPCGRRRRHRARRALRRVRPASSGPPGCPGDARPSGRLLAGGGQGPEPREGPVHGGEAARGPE
Source text: (§1) The design of such compounds can be optimized by determining their binding affinity at the recombinant MCH1, NPY1, NPY2, Gal1, Gal2, Gal3, and 5HT2C receptors. The methods to obtain the cDNA of the receptor, express said receptors in heterologous systems, and carry out assays to determine binding affinity are described in the following publications: human NPY1 (Larhammar et al., 1992), human NPY5 (U.S. Pat. No. 5,602,024, the disclosure of which is hereby incorporated by reference in its entirety into this application), human Gall (Habert-Ortoli et al., 1994), human Gal2 (Smith et al., 1997), human Gal3 (Smith et al., 1998), and rat 5HT2C (Julius et al., 1988). Additionally, the compounds would optimally not bind at the following receptors due to possible side effects: human H1 histamine and human H2 histamine receptors; human alpha-1A adrenergic, human alpha-1D adrenergic, human alpha-2A adrenergic, human alpha-2B adrenergic, and human alpha-2C adrenergic receptors; human dopamine D1, D2, D3, D4, and D5 receptors; the β-adrenoceptor; and the human 5HT1A, human 5HT1B, human 5HT1D, human 5HT1E, human 5HT1F, human 5HT2A, rat 5HT2C, human 5HT4, human 5HT6, and human 5HT7 receptors.

human NPY5 receptor = target: T2, human NPY5 receptor (Homo sapiens, UniProt Q15761); test: Binding affinity at the human NPY5 receptor; conditions: Table 3a; read-out: hNPY5 Ki
T2 construct: expressed in transfected cells
T2 sequence (Q15761 1-445): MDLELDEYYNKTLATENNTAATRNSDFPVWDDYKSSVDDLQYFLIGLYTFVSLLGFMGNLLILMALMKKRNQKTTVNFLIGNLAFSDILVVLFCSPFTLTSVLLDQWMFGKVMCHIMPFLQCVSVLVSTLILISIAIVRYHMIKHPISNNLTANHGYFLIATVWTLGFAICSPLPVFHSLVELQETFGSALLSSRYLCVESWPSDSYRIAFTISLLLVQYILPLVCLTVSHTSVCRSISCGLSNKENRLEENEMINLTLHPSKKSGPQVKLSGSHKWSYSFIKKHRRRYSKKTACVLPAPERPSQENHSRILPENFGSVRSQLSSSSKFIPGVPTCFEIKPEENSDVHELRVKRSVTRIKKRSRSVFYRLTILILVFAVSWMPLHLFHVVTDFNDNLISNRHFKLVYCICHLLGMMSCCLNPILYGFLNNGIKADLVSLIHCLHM
Source text: as §1

human GALR1 receptor = target: T3, human GALR1 receptor (Homo sapiens, UniProt P47211); test: Binding affinity at the human GALR1 receptor; conditions: Table 3a; read-out: hGALR1 Ki
T3 construct: expressed in transfected cells
T3 sequence (P47211 1-349): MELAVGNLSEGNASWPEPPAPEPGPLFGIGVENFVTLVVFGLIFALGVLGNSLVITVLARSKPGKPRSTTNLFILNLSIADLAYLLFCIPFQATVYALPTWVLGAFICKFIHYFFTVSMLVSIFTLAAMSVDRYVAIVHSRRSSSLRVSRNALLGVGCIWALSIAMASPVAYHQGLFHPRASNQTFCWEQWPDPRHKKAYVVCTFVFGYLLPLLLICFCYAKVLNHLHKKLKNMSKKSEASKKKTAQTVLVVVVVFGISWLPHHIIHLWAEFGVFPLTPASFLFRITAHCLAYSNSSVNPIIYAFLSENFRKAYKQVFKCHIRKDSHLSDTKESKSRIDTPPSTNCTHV
Source text: as §1

rat 5HT2C receptor = target: T4, rat 5HT2C receptor (Rattus norvegicus, UniProt P08909); test: Binding affinity at the rat 5HT2C receptor; conditions: Table 3a; read-out: r5HT2C Ki
T4 construct: expressed in transfected cells
T4 sequence (P08909 33-460): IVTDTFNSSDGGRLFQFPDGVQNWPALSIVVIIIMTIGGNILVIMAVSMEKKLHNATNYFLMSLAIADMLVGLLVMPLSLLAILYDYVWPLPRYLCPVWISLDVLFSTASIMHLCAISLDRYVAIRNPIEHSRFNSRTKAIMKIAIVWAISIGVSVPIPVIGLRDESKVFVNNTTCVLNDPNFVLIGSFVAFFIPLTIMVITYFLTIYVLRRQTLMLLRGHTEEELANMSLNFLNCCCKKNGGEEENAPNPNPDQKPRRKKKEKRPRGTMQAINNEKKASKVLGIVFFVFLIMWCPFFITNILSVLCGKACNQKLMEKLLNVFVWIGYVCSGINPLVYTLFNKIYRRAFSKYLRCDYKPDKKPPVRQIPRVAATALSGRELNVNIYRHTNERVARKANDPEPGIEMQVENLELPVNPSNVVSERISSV
Source text: as §1
Other 5HT Receptors: Other serotonin receptor binding assays were performed according to published methods: rat 5HT2C receptor (Julius et al., 1988); and 5HT6 (Monsma, et al., 1993). The binding assays using the 5HT4 receptor were performed according to the procedures described in U.S. Pat. No. 5,766,879, the disclosure of which is hereby incorporated by reference in its entirety into this application.

human GALR2 receptor = target: T5, human GALR2 receptor (Homo sapiens, UniProt O43603); test: Binding affinity at the human GALR2 receptor; conditions: Table 3a; read-out: hGALR2 Ki
T5 construct: expressed in transfected cells
T5 sequence (O43603 1-387): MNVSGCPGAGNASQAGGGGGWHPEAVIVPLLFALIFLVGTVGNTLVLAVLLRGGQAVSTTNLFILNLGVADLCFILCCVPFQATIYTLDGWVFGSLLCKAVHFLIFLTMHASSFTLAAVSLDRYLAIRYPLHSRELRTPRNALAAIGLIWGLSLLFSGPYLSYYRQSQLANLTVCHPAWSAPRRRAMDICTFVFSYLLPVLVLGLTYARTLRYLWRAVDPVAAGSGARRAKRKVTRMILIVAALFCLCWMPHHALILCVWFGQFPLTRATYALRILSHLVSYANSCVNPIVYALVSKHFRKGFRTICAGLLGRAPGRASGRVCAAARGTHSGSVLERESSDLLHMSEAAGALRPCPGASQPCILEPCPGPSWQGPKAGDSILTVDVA
Source text: as §1

human NPY1 receptor = target: T6, human NPY1 receptor (Homo sapiens, UniProt P25929); test: Binding affinity at the human NPY1 receptor; conditions: Table 3a; read-out: hMPY1 Ki
T6 construct: expressed in transfected cells
T6 sequence (P25929 1-384): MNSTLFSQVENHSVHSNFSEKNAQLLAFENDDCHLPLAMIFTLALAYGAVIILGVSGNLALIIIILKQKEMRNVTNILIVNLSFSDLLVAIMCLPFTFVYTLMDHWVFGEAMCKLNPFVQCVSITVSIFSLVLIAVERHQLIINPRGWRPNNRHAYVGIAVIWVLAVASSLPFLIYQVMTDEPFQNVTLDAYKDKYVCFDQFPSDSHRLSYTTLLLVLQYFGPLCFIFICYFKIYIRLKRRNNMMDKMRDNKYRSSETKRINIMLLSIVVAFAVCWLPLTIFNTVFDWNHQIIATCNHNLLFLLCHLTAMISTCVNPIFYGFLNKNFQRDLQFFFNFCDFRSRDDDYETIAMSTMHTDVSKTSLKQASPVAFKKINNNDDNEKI
Source text: as §1

Chain of human MCH1 receptor (Q99705 whole entry): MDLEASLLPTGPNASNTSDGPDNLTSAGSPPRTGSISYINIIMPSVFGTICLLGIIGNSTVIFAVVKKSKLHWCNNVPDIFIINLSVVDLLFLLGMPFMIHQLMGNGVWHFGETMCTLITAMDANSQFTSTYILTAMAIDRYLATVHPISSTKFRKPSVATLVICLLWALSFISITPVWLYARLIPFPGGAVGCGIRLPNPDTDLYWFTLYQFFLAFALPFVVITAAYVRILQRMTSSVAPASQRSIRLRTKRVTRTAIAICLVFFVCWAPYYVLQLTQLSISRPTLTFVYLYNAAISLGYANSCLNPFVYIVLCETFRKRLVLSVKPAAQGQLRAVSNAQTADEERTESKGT

CCn1c(=O)n(C2CCN(CCCNC(=O)N3C(=O)NC(C)=C(C(=O)OC)C3c3ccc(F)c(F)c3)CC2)c2ccccc21 (single isomer, unassigned; (+)) [Example 7, (+)-1,2,3,6-TETRAHYDRO-1-{N-[4-(N′-ETHYL)-N-BENZIMIDAZOLYL-PIPERIDIN-1YL]PROPYL}CARBOXAMIDO-4-METHYL-6-(3,4-DIFLUOROPHENYL)-2-OXOPYRIMIDINE HYDROCHLORIDE]
Kb (human MCH1 receptor): 41 nM

CC(=O)C1=C(C)NC(=O)N(C(=O)NCCCN2CCC(c3ccc(F)cc3)CC2)C1c1cc(F)c(F)c(F)c1 (single isomer, unassigned; (+)) [Example 12, (+)-1,2,3,6-TETRA HYDRO-1-{N-[4-(4-FLUOROPHENYL)-PIPERIDINE-1-YL]-PROPYL]CARBOXAMIDO-5-ACETYL-2-OXO-6-(3,4,5-TRI FLUORO PHENYL)-4-METHYL PYRIMIDINE HYDROCHLORIDE]
Kb (human MCH1 receptor): 29 nM

COCC1=C(C(=O)OC)C(c2ccc(F)c(F)c2)N(C(=O)NCCCN2CCC(c3cc(F)ccc3OC)CC2)C(=O)N1 (single isomer, unassigned; (+)) [Example 15]
Kb (human MCH1 receptor): 289 nM

COCC1=C(C(=O)OC)C(c2ccc(F)c(F)c2)N(C(=O)NCCCN2CCC(c3ccccn3)CC2)C(=O)N1 (single isomer, unassigned; (+)) [Example 17, (+)-6-(3,4-DIFLUOROPHENYL)-1-{N-[4-(2-PYRIDYL)PIPERIDIN-1-YL]-PROPYL}CARBOXAMIDO-5-METHOXYCARBONYL-4-METHOXYMETHYL-2-OXO-1,2,3,6-TETRAHYDROPYRIMIDINE DIHYDROCHLORIDE]
Kb (human MCH1 receptor): 373 nM

CCC1=C(C(N)=O)C(c2ccc(F)c(F)c2)N(C(=O)NCCCN2CCC3(CC2)OCc2ccccc23)C(=O)N1 (single isomer, unassigned; (+)) [Example 22, (+)-1,2,3,6-TETRAHYDRO-1-{N-[4-(BENZO-4′,5′(H)FURAN)PIPERIDIN-1-YL]PROPYL}CARBOXAMIDO-4-ETHYL-6-(3,4-DIFLUOROPHENYL)-2-OXO-PYRIMIDINE-5-CARBOXAMIDE HYDROCHLORIDE]
Kb (human MCH1 receptor): 40 nM

COCC1=C(C(=O)OC)C(c2ccc(F)c(F)c2)N(C(=O)NCCCN2CCC(c3cc(F)c(F)c(F)c3)CC2)C(=O)N1 (single isomer, unassigned; (+)) [Example 33, (+)-1,2,3,6-TETRAHYDRO-1-{N-[4-(3,4,5-TRIFLUORO)-PHENYL-PIPERIDIN-1-YL]PROPYL}CARBOXAMIDO-4-METHOXYMETHYL-6-(3,4-DIFLUOROPHENYL)-2-OXOPYRIMIDINE-5-CARBOXYLIC ACID METHYL ESTER]
Kb (human MCH1 receptor): 12 nM

COCC1=C(C(=O)OC)C(c2ccc(F)c(F)c2)N(C(=O)NCCCN2CCC(C)(c3ccccc3)CC2)C(=O)N1 (single isomer, unassigned; (+)) [Example 36, (+)-1,2,3,6-TETRAHYDRO-5-METHOXYCARBONYL-4-METHOXYMETHYL-2-OXO-1-{N-[3-(4-METHYL-4-PHENYL PIPERIDINE-1-YL]PROPYL}-6-(3,4-DIFLUOROPHENYL) PYRIMIDINE]
Kb (human MCH1 receptor): 406 nM

COC(=O)C1=C(C)NC(=O)N(C(=O)NCCCN2CCC3(CC2)C(=O)CCc2ccccc23)C1c1ccc2nonc2c1 (centres unmarked) [Example 23, HYDROCHLORIDE]
Kb (human MCH1 receptor): 68 nM

CCN1c2ccc(/C=C3\SC(=S)NC3=O)cc2C(C)=CC1(C)C [Example 25]
Ki (human GALR3 receptor): > 50 µM | Ki (human NPY5 receptor): > 50 µM | Ki (human GALR1 receptor): > 50 µM | Ki (rat 5HT2C receptor): 41 µM | Ki (human GALR2 receptor): > 50 µM

Fc1ccc(C(c2ccc(F)cc2)N2CCN(C/C=C/c3ccccc3)CC2)cc1 [Example 26, 1-[BIS(4-FLUOROPHENYL)METHYL]-4-(3-PHENYL-2-PROPENYL)PIPERAZINE]
Ki (human GALR3 receptor): > 50 µM | Ki (human NPY5 receptor): > 50 µM | Ki (human GALR1 receptor): > 50 µM | Ki (human NPY1 receptor): > 50 µM | Ki (human GALR2 receptor): > 50 µM

Cc1cc(O)cc(O)c1/C=N/c1ccc(-c2cn3ccccc3n2)cc1 [Example 27]
Ki (human GALR3 receptor): > 50 µM | Ki (human NPY5 receptor): > 50 µM | Ki (human GALR1 receptor): > 50 µM | Ki (rat 5HT2C receptor): > 50 µM | Ki (human NPY1 receptor): > 50 µM | Ki (human GALR2 receptor): > 50 µM

O=C(CCCN1CCC(NC(=O)c2ccccc2)CC1)c1ccc(Cl)cc1 [Example 28, [3-(4-CHLOROBENZOYL)]PROPYL-4-BENZAMIDOPIPERIDINE]
Ki (human GALR3 receptor): > 50 µM | Ki (human NPY5 receptor): > 50 µM | Ki (human GALR1 receptor): > 50 µM | Ki (rat 5HT2C receptor): 34.1 µM | Ki (human GALR2 receptor): > 50 µM

CN1CN(c2ccccc2)C2(CCN(CCCC(=O)c3ccc(F)cc3)CC2)C1=O [Example 30, N-METHYL-8-[4-(4-FLUOROPHENYL)-4-OXOBUTYL]-1-PHENYL-1,3,8-TRI-[4.5]DECAN-4-ONE]
Ki (human GALR3 receptor): > 50 µM | Ki (human NPY5 receptor): > 50 µM | Ki (human GALR1 receptor): > 50 µM | Ki (rat 5HT2C receptor): 8.86 µM | Ki (human NPY1 receptor): > 50 µM | Ki (human GALR2 receptor): > 50 µM
